In ChEMBL document CHEMBL2440076, “New triarylpyrazoles as broad-spectrum anticancer agents: design, synthesis, and biological evaluation” (Eur J Med Chem, 2013):

Columns and labels:
T47D = assay: Growth inhibition of human T47D cells assessed as cell growth at 10 uM after 48 hrs by sulforhodamine B assay; type: functional; details: read-out: Activity
MCF7 = assay: Growth inhibition of human MCF7 cells assessed as cell growth at 10 uM after 48 hrs by sulforhodamine B assay; type: functional; details: MCF7, 48 h, read-out: Activity
MDA-MB-231 = assay: Growth inhibition of human MDA-MB-231 cells assessed as cell growth at 10 uM after 48 hrs by sulforhodamine B assay; type: functional; details: MDA-MB-231, 48 h, read-out: Activity
DU-145 = assay: Growth inhibition of human DU145 cells assessed as cell growth at 10 uM after 48 hrs by sulforhodamine B assay; type: functional; details: DU-145, 48 h, read-out: Activity
CAKI-1 = assay: Growth inhibition of human CAKI-1 cells assessed as cell growth at 10 uM after 48 hrs by sulforhodamine B assay; type: functional; details: CAKI-1, 48 h, read-out: Activity
SW-620 = assay: Growth inhibition of human SW620 cells after 48 hrs by sulforhodamine B assay; type: functional; details: SW-620, 48 h
KM12 = assay: Growth inhibition of human KM12 cells after 48 hrs by sulforhodamine B assay; type: functional, cell-based; details: KM12, 48 h
[1] = Growth inhibition of human HCC2998 cells after 48 hrs by sulforhodamine B assay; type: functional; details: HCC 2998, 48 h
NCI-H226 [2] = assay: Growth inhibition of human NCI-H226 cells after 48 hrs by sulforhodamine B assay; type: functional; details: NCI-H226, 48 h
SR = assay: Growth inhibition of human SR cells after 48 hrs by sulforhodamine B assay; type: functional
RPMI-8226 = assay: Growth inhibition of human RPMI8226 cells after 48 hrs by sulforhodamine B assay; type: functional, cell-based; details: RPMI-8226, 48 h
CCRF-CEM [3] = assay: Growth inhibition of human CCRF-CEM cells after 48 hrs by sulforhodamine B assay; type: functional
ACHN = assay: Growth inhibition of human ACHN cells assessed as cell growth at 10 uM after 48 hrs by sulforhodamine B assay; type: functional; details: read-out: Activity
A498 [4] = assay: Growth inhibition of human A498 cells assessed as cell growth at 10 uM after 48 hrs by sulforhodamine B assay; type: functional; details: A498, 48 h, read-out: Activity
SK-OV-3 = assay: Growth inhibition of human SKOV3 cells assessed as cell growth at 10 uM after 48 hrs by sulforhodamine B assay; type: functional; details: SK-OV-3, 48 h, read-out: Activity
[5] = Growth inhibition of human NCI-ADR-RES cells assessed as cell growth at 10 uM after 48 hrs by sulforhodamine B assay; type: functional; details: read-out: Activity
IGROV-1 = assay: Growth inhibition of human IGROV1 cells assessed as cell growth at 10 uM after 48 hrs by sulforhodamine B assay; type: functional; details: IGROV-1, 48 h, read-out: Activity
Malme-3M = assay: Growth inhibition of human MALME-3M cells assessed as cell growth at 10 uM after 48 hrs by sulforhodamine B assay; type: functional; details: read-out: Activity
U-251 = assay: Growth inhibition of human U251 cells assessed as cell growth at 10 uM after 48 hrs by sulforhodamine B assay; type: functional; details: U-251, 48 h, read-out: Activity
HCT-116 = assay: Growth inhibition of human HCT116 cells assessed as cell growth at 10 uM after 48 hrs by sulforhodamine B assay; type: functional; details: HCT-116, 48 h, read-out: Activity
COLO 205 = assay: Growth inhibition of human COLO205 cells assessed as cell growth at 10 uM after 48 hrs by sulforhodamine B assay; type: functional; details: COLO 205, 48 h, read-out: Activity
NCI-H226 [6] = assay: Growth inhibition of human NCI-H226 cells assessed as cell growth at 10 uM after 48 hrs by sulforhodamine B assay; type: functional; details: NCI-H226, 48 h, read-out: Activity
UO-31 = assay: Growth inhibition of human UO31 cells after 48 hrs by sulforhodamine B assay; type: functional; details: UO-31, 48 h
TK-10 = assay: Growth inhibition of human TK10 cells after 48 hrs by sulforhodamine B assay; type: functional; details: TK-10, 48 h
SN12C = assay: Growth inhibition of human SN12C cells after 48 hrs by sulforhodamine B assay; type: functional
A498 [7] = assay: Growth inhibition of human A498 cells after 48 hrs by sulforhodamine B assay; type: functional, cell-based; details: A498, 48 h
OVCAR-4 = assay: Growth inhibition of human OVCAR4 cells after 48 hrs by sulforhodamine B assay; type: functional; details: OVCAR-4, 48 h
UACC-62 = assay: Growth inhibition of human UACC62 cells after 48 hrs by sulforhodamine B assay; type: functional; details: UACC-62, 48 h
UACC-257 = assay: Growth inhibition of human UACC257 cells after 48 hrs by sulforhodamine B assay; type: functional; details: UACC-257, 48 h
MDA-MB-435 = assay: Growth inhibition of human MDA-MB-435 cells after 48 hrs by sulforhodamine B assay; type: functional, cell-based; details: MDA-MB-435, 48 h
M14 = assay: Growth inhibition of human M14 cells after 48 hrs by sulforhodamine B assay; type: functional; details: M14, 48 h
SNB-75 = assay: Growth inhibition of human SNB75 cells after 48 hrs by sulforhodamine B assay; type: functional; details: SNB-75, 48 h
SF-268 = assay: Growth inhibition of human SF268 cells after 48 hrs by sulforhodamine B assay; type: functional; details: SF-268, 48 h
K562 = assay: Growth inhibition of human K562 cells assessed as cell growth at 10 uM after 48 hrs by sulforhodamine B assay; type: functional; details: K562, 48 h, read-out: Activity
CCRF-CEM [8] = assay: Growth inhibition of human CCRF-CEM cells assessed as cell growth at 10 uM after 48 hrs by sulforhodamine B assay; type: functional; details: read-out: Activity
[9] = read-out: LC50 (the source's name)

## O=C(Nc1cccc(-n2cc(-c3ccncc3)c(-c3ccc(Cl)c(O)c3)n2)c1)c1ccc(N2CCOCC2)c(C(F)(F)F)c1
T47D
  growth at 10 µM: 69.4%
MCF7
  growth at 10 µM: 60.6%
MDA-MB-231
  growth at 10 µM: 23.4%
DU-145
  growth at 10 µM: 52.7%
CAKI-1
  growth at 10 µM: 81.2%
SW-620
  GI50: 1.72 µM
  TGI: 5.68 µM
SW-620; [9]
  CC50: > 50 µM
KM12
  GI50: 1.94 µM
  TGI: > 50 µM
KM12; [9]
  CC50: > 50 µM
[1]
  GI50: 5.66 µM
  TGI: > 50 µM
[1]; [9]
  CC50: > 50 µM
NCI-H226 [2]
  GI50: > 50 µM
  TGI: > 50 µM
NCI-H226 [2]; [9]
  CC50: > 50 µM
SR
  GI50: 1.63 µM
  TGI: > 50 µM
SR; [9]
  CC50: > 50 µM
RPMI-8226
  GI50: 1.4 µM
  IC50: 1.4 µM
  TGI: 12.5 µM
RPMI-8226; [9]
  CC50: > 50 µM
CCRF-CEM [3]
  GI50: 1.82 µM
  LC50: > 50 µM
  TGI: > 50 µM
ACHN
  growth at 10 µM: 36.6%
A498 [4]
  growth at 10 µM: 101%
SK-OV-3
  growth at 10 µM: 74.2%
[5]
  growth at 10 µM: 43.9%
IGROV-1
  growth at 10 µM: 96.8%
Malme-3M
  growth at 10 µM: 10.7%
U-251
  growth at 10 µM: 11.8%
HCT-116
  growth at 10 µM: 29.6%
COLO 205
  growth at 10 µM: 96.1%
NCI-H226 [6]
  growth at 10 µM: 107%
UO-31
  GI50: 2.6 µM
  TGI: 34.3 µM
UO-31; [9]
  CC50: > 50 µM
TK-10
  GI50: 21.3 µM
  TGI: > 50 µM
TK-10; [9]
  CC50: > 50 µM
SN12C
  GI50: 22 µM
  TGI: > 50 µM
SN12C; [9]
  CC50: > 50 µM
A498 [7]
  GI50: 15.5 µM
  IC50: 15.5 µM
  TGI: > 50 µM
A498 [7]; [9]
  CC50: > 50 µM
OVCAR-4
  GI50: 39.2 µM
  LC50 (concentration killing 50% of cells): > 50 µM
  TGI: > 50 µM
UACC-62
  GI50: 3.26 µM
  LC50 (50% lethal concentration): > 50 µM
  TGI: 18.4 µM
UACC-257
  GI50: 6.3 µM
  TGI: 36.8 µM
UACC-257; [9]
  CC50: > 50 µM
MDA-MB-435
  GI50: 2.04 µM
  IC50: 2.04 µM
  TGI: > 50 µM
MDA-MB-435; [9]
  CC50: > 50 µM
M14
  GI50: 1.63 µM
  LC50 (concentration killing 50% of cells): 49.6 µM
  TGI: 9.1 µM
SNB-75
  GI50: 1.3 µM
  LC50 (lethal concentration, 50% net cell kill): > 50 µM
  TGI: > 50 µM
SF-268
  GI50: 5.58 µM
  TGI: > 50 µM
SF-268; [9]
  CC50: > 50 µM
K562
  growth at 10 µM: 7.96%
CCRF-CEM [8]
  growth at 10 µM: 27.9%
